{"source": "patent US3959311A", "about": "“Oxotremorine antagonists” (priority 1967, dated 1976)", "key": {"[1]": {"test_system": "oxotremorine-induced tremor", "conditions": "cited from earlier work"}, "[2]": {"test_system": "oxotremorine tremor response", "test": "Oxotremorine antagonism: affinity constant from shift of median effective tremor dose of oxotremorine (Dixon up-and-down method)", "assay_type": "in vivo, mice", "conditions": "AL-301 set equal to 1.0", "procedure": "It was tested in the following manner:\nFour or more groups, each containing six female mice weighing 22 to 26 grams, were selected. To establish a control, each member of the first group was dosed in sequence with oxotremorine in the absence of any test compound.\nIn the Dixon method the first animal is treated at an arbitrarily selected level and the presence or absence of tremor response is noted. An increased or decreased dosage is then selected according to the schedule specified by the Dixon procedure for the second animal which would tend to produce a change in the tremor response.\nFor each test group, the increased median effective dose of oxotremorine was determined in the same manner.\nTo compare the potency of the test compound the affinity constant was obtained from the data. The affinity constant is that concentration of test compound which when administered blocks the oxotremorine response so that twice the concentration of oxotremorine is necessary to evoke the same response as was produced in the absence of the test compound."}, "diameter of the pupil": {"test_system": "diameter of the pupil", "test": "animal or person", "assay_type": "in vivo, mice", "conditions": "Mus musculus", "from_the_text": "(§1) This \"tremorolytic\" dose is designated as T. As a standard for the peripheral effect the dose of the compound in mg/kg, which doubles the diameter of the pupil, is given. This \"mydriatic\" dose is designated as M. The ratio between M and T will constitute a standard for specific central effect of the substance. A higher value for M/T corresponds to a higher specificity."}, "[3]": {"test_system": "tremoromimetic effects of oxotremorine", "assay_type": "in vivo, mice", "from_the_text": "as §1"}, "[4]": {"conditions": "mydriatic dose / tremorolytic dose, higher value = higher specificity"}, "[5]": {"conditions": "dose which doubles the diameter of the pupil, mice, read-out: Mydriatic Dose"}}, "note": "Read-outs that look alike come from different tables or passages of the source.", "data": [{"compound": "O=C1CCCN1CC#CCN1CCCC1", "note": "[oxotremorine, N-(4-pyrrolidino-2-butynyl)-pyrrolidin-2-one]", "values": [{"measurement": "effects of oxotremorine", "setting": "[1]; immediately after injection by intravenous routes, several species of laboratory animals", "result": "induces violent generalized tremors, spasticity, hypokinesia and parasympathomimetic effects"}]}, {"compound": "CC(C#CCN1CCCCC1)N1CCCC1=O", "note": "(stereo not shown) [N-(1-methyl-4-piperidino-2-butynyl)-pyrrolidin-2-one]", "values": [{"measurement": "Ratio of affinity constant dosages (relative potency)", "setting": "[2]", "result": 8.5}]}, {"compound": "CCN(CC)CCOC(=O)C1(c2ccccc2)CCCC1", "note": "[caramiphen, 1-phenylcyclopentanecarboxylic acid 2-diethylaminoethyl ester]", "values": [{"measurement": "side effect: antagonism of peripheral cholinergic effects of oxotremorine", "setting": "[1]; in vivo", "result": "antagonizing the peripheral cholinergic effects of oxotremorine"}, {"measurement": "antagonism of oxotremorine-induced tremor", "setting": "[1]; in words", "result": "antagonize the oxotremorine-induced tremor"}]}, {"compound": "CC(C#CCN1CCCC1)N1CCCC1=O", "note": "(stereo not shown) [N-(1-methyl-4-pyrrolidino-2-butynyl)-pyrrolidin-2-one]", "values": [{"measurement": "Ratio of affinity constant dosages (relative potency)", "setting": "[2]", "result": 17.0}, {"measurement": "Ratio of affinity constant dosages (relative potency)", "setting": "[2]; listed as n = 4", "result": 17}, {"measurement": "ED (doubling of pupil diameter)", "setting": "diameter of the pupil; read-out: Mydriatic Dose (M)", "result": 0.62, "unit": "mg/kg"}, {"measurement": "Tremorolytic Dose (T)", "setting": "[3]; dose which inhibits the effect of 150 μg/kg of oxotremorine i.v., mice", "result": 0.19, "unit": "mg/kg"}, {"measurement": "M/T ratio (specific central effect)", "setting": "[3]; [4]", "result": 3.26}]}, {"compound": "OC(CCN1CCCCC1)(c1ccccc1)C1CCCCC1", "note": "(stereo not drawn) [Artane, α-cyclohexyl-α-phenyl-1-piperidine-propanol, reference compound]", "values": [{"measurement": "Ratio of affinity constant dosages (relative potency)", "setting": "[2]", "result": 1.8}]}, {"compound": "OC(CCN1CCCCC1)(c1ccccc1)C1CCCCC1", "note": "(stereo not shown) [benzhexol, reference compound]", "values": [{"measurement": "ED (doubling of pupil diameter)", "setting": "diameter of the pupil; [5]", "result": 1.15, "unit": "mg/kg"}, {"measurement": "M/T ratio (specific central effect)", "setting": "[3]; mouse, in vivo", "result": 0.21}, {"measurement": "Tremorolytic Dose (T)", "setting": "[3]; mouse, in vivo, iv", "result": 5.5}]}, {"compound": "CC(C#CCN1CCCCCC1)N1CCCC1=O", "note": "(stereo not shown) [N-(1-methyl-4-perhydroazepino-2-butynyl)-pyrrolidin-2-one]", "values": [{"measurement": "Ratio of affinity constant dosages (relative potency)", "setting": "[2]", "result": 9.0}, {"measurement": "ED (doubling of pupil diameter)", "setting": "diameter of the pupil; [5]", "result": 2, "unit": "mg/kg"}, {"measurement": "Tremorolytic Dose (T)", "setting": "[3]; mouse, in vivo, iv", "result": 0.32, "unit": "mg/kg"}, {"measurement": "M/T ratio (specific central effect)", "setting": "[3]; [4]", "result": 6.25}]}, {"compound": "CN1[C@@H]2CC[C@H]1C[C@@H](OC(=O)C(CO)c1ccccc1)C2", "note": "(stereo partly shown) [atropine]", "values": [{"measurement": "antagonism of oxotremorine-induced tremor", "setting": "[1]; in words", "result": "antagonize the oxotremorine-induced tremor"}, {"measurement": "side effect: antagonism of peripheral cholinergic effects of oxotremorine", "setting": "[1]; in words", "result": "antagonizing the peripheral cholinergic effects of oxotremorine"}]}]}
